What was measured:
FABP7 = FABP7 (Homo sapiens, UniProt O15540); experiment: Fluorescence displacement binding assay (ANS probe)
Method: Purified FABPs were incubated with 11-(dansylamino)undecanoic acid (DAUDA) (FABP3, FABP5) or 8-anilino-1-naphthalenesulfonic acid (ANS) (FABP7) in the presence or absence of FABP inhibitors (.01–200 μM) in the binding assay buffer. FABP4 binding was assessed using a commercially available kit (Cayman Chemical, Ann Arbor). In all cases, arachidonic acid (10 μM) was included to account for maximal probe displacement. Loss of fluorescence intensity was monitored with an F5 Filtermax Multi-Mode Microplate Reader (Molecular Devices, Sunnyvale) using the following excitation and emission wavelengths (DAUDA: ex./em.= 360/535 nm; ANS: ex./em. = 360/465 nm). Following background subtraction, the fluorescence intensity values were normalised and analyzed via a one-site binding model using the GraphPadPrism (version 9.2). Ki values were determined using the following equation: Ki= IC50/(1 + ([Probe]/Kd).

[1] = tested on: oxaliplatin-induced mechanical allodynia; experiment: Prevention of OIPN, paw withdrawal threshold; format: in vivo, male Sprague Dawley rats
Method: Male Sprague Dawley rats (150–210 g) were housed in groups of 4 in intra-ventilated Perspex home cages. Humidity, temperature (21 ± 1 °C), and lighting (light-dark cycle of 12:12 hours) were controlled and maintained in the home cages, with food and water available ad libitum. Rats acclimatised to the home cages for at least 1 week. All experiments were carried out according to the Animals (Scientific Procedures) Act, 1986 (U.K. Government Home Office). The study was performed under the Home Office project licence number PP0847012. OIPN was established with a single dose of OXA (10 mg/kg, IP).
Pain measurements were made on Days 5/6 (when neuropathy has normally developed) and at the end of the study. […] Terminal plasma samples were taken for bioanalysis and proteomics (Somalogic). Brain regions involved in pain processing, that is, prefrontal cortex (PFC), periaqueductal grey (PAG), whole spinal cords (SC), and L4-L6 dorsal root ganglia, were collected for lipidomic and genomic (Genewiz, China) analyses.
Tactile allodynia (primary outcome measure) was assessed using paw withdrawal threshold (PWT), a measure of pain sensitivity. PWT was evaluated using calibrated von-Frey monofilaments (Touch-Test Sensory Evaluator; Scientific Marketing Associates) applied to the plantar surface of the left hind paw. PWT was determined by increasing and decreasing stimulus intensity and estimated using Dixon’s up-down method.[38],[39]
To acquire baseline readings, pain behaviour was assessed on 3 consecutive days (Days −3, −2, −1). The mean of Day −2 and Day −1 was considered the healthy baseline (HBL) prior to OIPN induction. On Days 5 and 6 after OXA injection, thresholds were reassessed. The mean of Days 5 and 6 was considered the neuropathic baseline (NPB). Animals were then ranked and randomised (based on a Latin square design) to treatment groups according to the percentage change of the mean thresholds observed in the NPB compared to the HBL. NPB expressed as a percentage change from HBL was calculated as follows (HBL-NPB)/HBL*100. All behavioural assessment was done by an experimenter blinded to the identity of the treatment. Separate people were responsible for dosing and assessment/data analysis.

[2] = tested on: paclitaxel-induced peripheral neuropathy; conditions: male and female rats, similar efficacy; cited from earlier work

Sequence of FABP7 (O15540 whole entry, species assumed): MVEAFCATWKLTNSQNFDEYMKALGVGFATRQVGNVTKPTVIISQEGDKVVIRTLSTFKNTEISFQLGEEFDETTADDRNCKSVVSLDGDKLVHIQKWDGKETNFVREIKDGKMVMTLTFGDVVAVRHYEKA

For `COc1ccccc1[C@@H]1[C@H](C(=O)O)[C@@H](c2ccccc2OC)[C@H]1C(=O)OC1Cc2ccccc2C1` [ART26.12, (+)–3-Indan-2-yloxycarbonyl-2,4-bis(2-methoxyphenyl)cyclobutanecarboxylic acid], the Ki (FABP7) was 19 ± 1.81 µM, the “PWT on Day 5/6 compared to HBL” value ([1]; 10 mg/kg BID, P < .001) was “significantly lower PWTs” and the “PWT on Day 5/6 compared to HBL” value ([1]; 25 mg/kg BID, P < .05) was “significantly lower PWTs”. The “PWT on Day 14 compared to HBL” value ([1]; ART26.12 10 or 25 mg/kg BID groups) was “neither the ART26.12 nor the pregabalin groups showed significant allodynia” and the “effect on paclitaxel-induced peripheral neuropathy” value [2] was “prevents paclitaxel-induced peripheral neuropathy”.

From PMC12993615 (The journal of pain, 2024)
